The values below come from patent US20100137344A1, “INDUCTION OF ANALGESIA IN NEUROPATHIC PAIN” (University Court of the University of Edinburgh, priority 2006, published 2010).

The subject of one data set is TRPM8. Description: Antisense knockdown of TRPM8, DRG immunoblots (TRPM8:GAPDH). Format: in vivo, rat. Particulars: for TRPM8:GAPDH ratio in DRG: intrathecal oligonucleotide infusion. The source says:
Antisense and mis-sense oligonucleotides were 22-mers with phosphorothioate bonds at the last two positions at 5′ and 3′ ends (MWG Biotech, Ebersberg, Germany). Antisense extended from base −10 to base +12 relative to the start of the open reading frame for the rat TRPM8 gene: 5′ C*T*CGAAGGACATCTTGCCGT*G*G 3′, where * represents phosphorothioate linkages. Mis-sense was designed with 4 inversions of C/G or A/T as appropriate at residues 3, 11, 14 and 22, preserving overall G/C content. BLAST searches of both oligonucleotides indicated no significant complementarity to any known gene sequence. 14-day or 7-day osmotic minipumps (for CCI experiments or naïve electrophysiology experiments respectively—Alzet Minipump, models 2002, 2001; Charles River, UK) containing oligonucleotides (1 μg/μl in sterile saline) were connected to canulae inserted under the dura of the spinal cord to level L5/6 and produced a predicted infusion rate of 0.5 μl/h. CCI surgery was performed at the same time as minipump implantation. Sensory tests were carried out to assess the time-course of behavioural sensitisation in animals which had also undergone a CCI injury. Icilin was applied topically rather than intrathecally so as to prevent any interference with the infusion canula. […]
Ipsilateral or contralateral L4-L6 dorsal root ganglia (DRG) were taken from CCI animals (n=6), and from […]. […] Blots were incubated with rabbit polyclonal antibodies to TRPM8 (either an antibody raised against TRPM8 residues 278-292 and 1090-1104 (human); 1:500; Abcam Ltd., Cambridge, UK or occasionally an antibody raised against TRPM8 residues 656-680 (rat); 1:100; Phoenix Peptides, Belmont, Calif., USA), a rabbit polyclonal antibody to TRPV1 (1:250, Chemicon International Ltd, Harrow, UK) or a mouse monoclonal antibody to glyceraldehyde-3-phosphate dehydrogenase (GAPDH, 1:750; Chemicon) and immunoreactive bands were detected by […] secondary antibody and enhanced chemiluminescence. Quantitative densitometry analysis of protein bands was performed using the ScanAnalysis (Elsevier) programme.
In general terms: Immunoblotting shows a protein as a band on a membrane.

Data set [1] relates to rats with chronic constriction injury (CCI). Description: Sensitivity to noxious cold (4° C. water) in CCI animals with oligonucleotide infusion. Format: in vivo, rat. Particulars: at peak, control CCI 8.1±0.5 s. As for the experimental part: Thermal sensitivity was assessed by measuring paw withdrawal latency (PWL, s) in response to a noxious thermal stimulus (Hargreaves' thermal stimulator, Linton Instrumentation, Diss, UK) directed to the hindpaw mid-plantar glabrous surface. Mechanical sensitivity was recorded as the paw withdrawal threshold (PWT, mN/mm^2) to calibrated von Frey filaments (Stoelting, Ill., US), as previously described^[39]. Sensitivity to noxious cold was assessed by placing animals in a waterbath with an aluminium floor containing 1 cm deep 4° C. water and counting the time the paw was held suspended over a 20 s period.
Antisense and mis-sense oligonucleotides were 22-mers with phosphorothioate bonds at the last two positions at 5′ and 3′ ends (MWG Biotech, Ebersberg, Germany). Antisense extended from base −10 to base +12 relative to the start of the open reading frame for the rat TRPM8 gene: 5′ C*T*CGAAGGACATCTTGCCGT*G*G 3′, where * represents phosphorothioate linkages. Mis-sense was designed with 4 inversions of C/G or A/T as appropriate at residues 3, 11, 14 and 22, preserving overall G/C content. BLAST searches of both oligonucleotides indicated no significant complementarity to any known gene sequence. […]

Take “5′ C*T*CGAAGGACATCTTGCCGT*G*G 3′ (antisense CTCGAAGGACATCTTGCCGTGG; linkages s2 o17 s2 (s phosphorothioate, o phosphodiester), sugars by position and methylation of C not given here) [TRPM8 antisense, 22-mer with phosphorothioate bonds, base −10 to +12 of rat TRPM8 open reading frame]”: the “TRPM8:GAPDH ratio in DRG” value in the data set with TRPM8 (contralateral to CCI) came out at 14.9±2.1%; in the data set on TRPM8 (ipsilateral to CCI), 19.8±2.2%. In the data set on TRPM8 (naïve rats, intrathecal delivery over 5 days), the “knockdown of the 128 kDa TRPM8 band in DRG” value is given as “almost complete knockdown”. Moreover, in data set [1], the “elevation of the paw ipsilateral to nerve injury out of 4° C. water” value stood at 7.6 ± 0.6 s.
